Measured values published in ChEMBL document CHEMBL4340569, “Optimization of a small-molecule Lipid II binder” (Bioorg Med Chem Lett, 2019).
Blank lines part the entries; values can stand above or below the compound they belong to.

Assays:
Enterococcus faecium [1] = assay: Antimicrobial activity against vancomycin-resistant Enterococcus faecium F118 by broth dilution method; type: functional
Staphylococcus aureus [2] = assay: Antimicrobial activity against methicillin-resistant Staphylococcus aureus HFH-30123 by broth dilution method; type: functional
Klebsiella pneumoniae [3] = assay: Antimicrobial activity against carbapenemase KPC producing Klebsiella pneumoniae NR-15410 by broth dilution method; type: functional
Enterococcus faecium [4] = assay: Antimicrobial activity against Enterococcus faecium EF1509 by broth dilution method; type: functional
[5] = MRT in CD1 mouse at […], iv measured after 5 mins to 14 hrs by LC/MS/MS analysis; type: ADME, organism-based; conditions: in vivo
[6] = Cytotoxicity against human HeLa cells incubated for 72 hrs; type: cell-based
[7] = Half life in CD1 mouse at […], iv measured after 5 mins to 14 hrs by LC/MS/MS analysis; type: ADME, organism-based; conditions: in vivo; for half-life: CD1, mouse
[8] = AUClast in CD1 mouse at […], iv measured after 5 mins to 14 hrs by LC/MS/MS analysis; type: ADME, organism-based; set-up: time upper 14 hr, dose 2.5 mg/kg, time lower 0.083 hr, route intravenous; conditions: in vivo
[9] = Extrapolated AUC in CD1 mouse at […], iv measured after 5 mins to 14 hrs by LC/MS/MS analysis; type: ADME, organism-based; conditions: in vivo
Klebsiella pneumoniae [10] = assay: Antimicrobial activity against carbapenemase KPC producing Klebsiella pneumoniae NR-15411 by broth dilution method; type: functional
[11] = Antimicrobial activity against Enterobacter cloacae ATCC 13047 by broth dilution method; type: functional, Enterobacter cloacae subsp. cloacae
Pseudomonas aeruginosa [12] = assay: Antimicrobial activity against Pseudomonas aeruginosa PAO1 by broth dilution method; type: functional
[13] = Volume of distribution at steady state in CD1 mouse at […], iv measured after 5 mins to 14 hrs by LC/MS/MS analysis; type: ADME, organism-based; conditions: in vivo; for Vd: CD1, mouse, read-out: Vdss
Staphylococcus aureus [14] = assay: Antimicrobial activity against methicillin-resistant Staphylococcus aureus 1094 by broth dilution method; type: functional
Pseudomonas aeruginosa [15] = assay: Antimicrobial activity against Pseudomonas aeruginosa X13273 by broth dilution method; type: functional
Acinetobacter baumannii = assay: Antimicrobial activity against Acinetobacter baumannii ATCC 19606 by broth dilution method; type: functional; conditions: ATCC 19606 = CIP 70.34 = JCM 6841
Enterococcus faecium [16] = assay: Antimicrobial activity against vancomycin-resistant Enterococcus faecium EF1509 by broth dilution method; type: functional
Staphylococcus aureus [17] = assay: Antimicrobial activity against Staphylococcus aureus ATCC […] by broth dilution method; type: functional; conditions: ATCC 29213
[18] = Toxicity in CD1 mouse assessed as induction of adverse clinical observations at […], iv measured after 5 mins to 14 hrs; type: organism-based; conditions: in vivo
[19] = AUC (infinity) in CD1 mouse at […], iv measured after 5 mins to 14 hrs by LC/MS/MS analysis; type: ADME, organism-based; set-up: dose 2.5 mg/kg, time infinity, route intravenous; conditions: in vivo
[20] = Dose normalized AUClast in CD1 mouse at […], iv measured after 5 mins to 14 hrs by LC/MS/MS analysis; type: ADME, organism-based; conditions: in vivo
[21] = Binding affinity to bacterial lipid 2 by surface plasmon resonance assay; set-up: species or system Bacteria
Klebsiella aerogenes = assay: Antimicrobial activity against Klebsiella aerogenes ATCC 13048 by broth dilution method; type: functional
Pseudomonas aeruginosa [22] = assay: Antimicrobial activity against Pseudomonas aeruginosa ATCC 27853 by broth dilution method; type: functional
[23] = Ratio of EC50 for human HeLa cells to MIC of Enterococcus faecium; type: toxicity
[24] = Cmax in CD1 mouse at […], iv measured after 5 mins to 14 hrs by LC/MS/MS analysis; type: ADME, organism-based; set-up: dose 2.5 mg/kg, route intravenous; conditions: in vivo

SMILES: CN(C)c1ccc(/C=C/c2cc(-c3ccc(F)cc3)cc(-c3ccc(F)cc3)[o+]2)cc1.F[B-](F)(F)F
MIC (Enterococcus faecium [1]): 6.25 µM
MIC (Staphylococcus aureus [2]): 6.25 µM
MIC (Klebsiella pneumoniae [3]): ≥ 80 µM
MIC (Enterococcus faecium [4]): 2 µM
MRT ([5]; CD1, mouse, read-out: MRT): 1.74 h
CC50 at 72 h [6]: ≥ 80 µg/mL
half-life [7]: 6.81 h
AUC(0-t) [8]: 565 ng·h/mL
%AUCextra [9]: 2.25%
MIC (Klebsiella pneumoniae [10]): ≥ 80 µM
MIC [11]: ≥ 80 µM
MIC (Pseudomonas aeruginosa [12]): ≥ 80 µM
Vd [13]: 46.3 L/kg
MIC (Staphylococcus aureus [14]): 4.42 µM
MIC (Pseudomonas aeruginosa [15]): ≥ 80 µM
MIC (Acinetobacter baumannii): ≥ 80 µM
MIC (Enterococcus faecium [16]): 1.56 µM
MIC (Staphylococcus aureus [17]): 3.9 µM
Activity [18]: Non-Toxic
AUC [19]: 578 ng·h/mL
AUClast/dose [20]: 56.5 ng·h/mL
Kd [21]: 340 nM
MIC (Klebsiella aerogenes): ≥ 80 µM
MIC (Pseudomonas aeruginosa [22]): ≥ 80 µM
selectivity ratio [23]: ≥ 80
Cmax [24]: 3220 ng/mL

SMILES: ClCCN(CCCl)c1ccc(/C=C/c2cc(-c3ccc(Br)cc3)cc(-c3ccc(Br)cc3)[o+]2)cc1
MIC (Enterococcus faecium [4]): > 80 µM
MIC (Staphylococcus aureus [17]): > 80 µM

SMILES: OCCN(CCO)c1ccc(/C=C/c2cc(-c3ccc(Br)cc3)cc(-c3ccc(Br)cc3)[o+]2)cc1
MIC (Enterococcus faecium [4]): > 80 µM
MIC (Staphylococcus aureus [17]): > 80 µM

SMILES: CN(/C=C/c1cc(-c2cccc(Br)c2)cc(-c2cccc(Br)c2)[o+]1)CCO
MIC (Enterococcus faecium [4]): > 80 µM
MIC (Staphylococcus aureus [17]): > 80 µM

SMILES: CN(C)c1ccc(/C=C/c2cc(-c3ccc(Br)cc3)cc(-c3ccc(Br)cc3)[o+]2)cc1.F[B-](F)(F)F
MIC (Enterococcus faecium [1]): 5.65 µM
MIC (Staphylococcus aureus [2]): 32 µM
MIC (Klebsiella pneumoniae [3]): ≥ 80 µM
MIC (Enterococcus faecium [4]): 46.8 to 80 µM
MRT ([5]; mouse): 7.29 h
CC50 at 72 h [6]: ≥ 80 µg/mL
t1/2 ([7]; mouse): 13.3 h
%AUCextra [9]: 24.3%
MIC (Klebsiella pneumoniae [10]): ≥ 80 µM
MIC [11]: ≥ 80 µM
MIC (Pseudomonas aeruginosa [12]): ≥ 80 µM
Vdss ([13]; mouse): 22.8 L/kg
MIC (Staphylococcus aureus [14]): 32 µM
MIC (Pseudomonas aeruginosa [15]): ≥ 80 µM
MIC (Acinetobacter baumannii): ≥ 80 µM
MIC (Enterococcus faecium [16]): 2.82 µM
MIC (Staphylococcus aureus [17]): 23.4 to 80 µM
Activity [18]: Non-Toxic
AUClast/dose [20]: 536 ng·h/mL
Kd [21]: 150 nM
MIC (Klebsiella aerogenes): ≥ 80 µM
MIC (Pseudomonas aeruginosa [22]): ≥ 80 µM
selectivity ratio [23]: ≥ 80

SMILES: CN1/C(=C/C=C/c2cc(-c3ccccc3)cc(-c3ccccc3)[o+]2)C(C)(C)c2ccccc21.F[B-](F)(F)F
MRT ([5]; CD1, mouse, read-out: MRT): 0.226 h
half-life [7]: 0.227 h
AUC(0-t) [8]: 26.9 ng·h/mL
%AUCextra [9]: 4.38%
Vd [13]: 12.2 L/kg
Activity [18]: Non-Toxic
AUC [19]: 27.9 ng·h/mL
AUClast/dose [20]: 26.9 ng·h/mL
Cmax [24]: 101 ng/mL

SMILES: ClCCN(/C=C/c1cc(-c2cccc(Br)c2)cc(-c2cccc(Br)c2)[o+]1)CCCl
MIC (Enterococcus faecium [4]): 49.3 µM
MIC (Staphylococcus aureus [17]): 49.3 µM

SMILES: OCCN(CCO)c1ccc(/C=C/c2cc(-c3cccc(F)c3)cc(-c3cccc(F)c3)[o+]2)cc1
MIC (Enterococcus faecium [1]): 12.5 µM
MIC (Staphylococcus aureus [2]): 12.5 µM
MIC (Klebsiella pneumoniae [3]): ≥ 80 µM
MIC (Enterococcus faecium [4]): 3.9 µM
CC50 at 72 h [6]: ≥ 80 µg/mL
MIC (Klebsiella pneumoniae [10]): ≥ 80 µM
MIC [11]: ≥ 80 µM
MIC (Pseudomonas aeruginosa [12]): ≥ 80 µM
MIC (Staphylococcus aureus [14]): 12.5 µM
MIC (Pseudomonas aeruginosa [15]): ≥ 80 µM
MIC (Acinetobacter baumannii): ≥ 80 µM
MIC (Enterococcus faecium [16]): 3.13 µM
MIC (Staphylococcus aureus [17]): 2.1 µM
Kd [21]: 310 nM
MIC (Klebsiella aerogenes): ≥ 80 µM
MIC (Pseudomonas aeruginosa [22]): ≥ 80 µM
selectivity ratio [23]: 49.3

SMILES: Fc1ccc(-c2cc(/C=C/N3CCNCC3)[o+]c(-c3ccc(F)cc3)c2)cc1
MIC (Enterococcus faecium [1]): 8.84 µM
MIC (Staphylococcus aureus [2]): 6.25 µM
MIC (Klebsiella pneumoniae [3]): ≥ 80 µM
MIC (Enterococcus faecium [4]): 1.9 µM
CC50 at 72 h [6]: ≥ 80 µg/mL
MIC (Klebsiella pneumoniae [10]): ≥ 80 µM
MIC [11]: ≥ 80 µM
MIC (Pseudomonas aeruginosa [12]): ≥ 80 µM
MIC (Staphylococcus aureus [14]): 6.25 µM
MIC (Pseudomonas aeruginosa [15]): ≥ 80 µM
MIC (Acinetobacter baumannii): ≥ 80 µM
MIC (Enterococcus faecium [16]): 3.13 µM
MIC (Staphylococcus aureus [17]): 3.8 µM
Kd [21]: 6200 nM
MIC (Klebsiella aerogenes): ≥ 80 µM
MIC (Pseudomonas aeruginosa [22]): ≥ 80 µM
selectivity ratio [23]: 62.6

Next, values leading:

MIC (Enterococcus faecium [4]): > 80 µM
MIC (Staphylococcus aureus [17]): > 80 µM
SMILES: CC(=O)N1CCN(c2ccc(/C=C/c3cc(-c4ccc(F)cc4)cc(-c4ccc(F)cc4)[o+]3)cc2)CC1

MIC (Enterococcus faecium [4]): 51.4 µM
MIC (Staphylococcus aureus [17]): 12.8 µM
SMILES: CCC(=O)N1CCN(c2ccc(/C=C/c3cc(-c4cccc(Br)c4)cc(-c4cccc(Br)c4)[o+]3)cc2)CC1

MIC (Enterococcus faecium [4]): > 80 µM
MIC (Staphylococcus aureus [17]): > 80 µM
SMILES: Brc1ccc(-c2cc(/C=C/c3ccc(N4CCOCC4)cc3)[o+]c(-c3ccc(Br)cc3)c2)cc1

MIC (Enterococcus faecium [4]): 57 µM
MIC (Staphylococcus aureus [17]): 28.5 µM
SMILES: O=C(c1ccccc1)N1CCN(c2ccc(/C=C/c3cc(-c4ccc(F)cc4)cc(-c4ccc(F)cc4)[o+]3)cc2)CC1

MIC (Enterococcus faecium [4]): > 80 µM
MIC (Staphylococcus aureus [17]): > 80 µM
SMILES: CN(C)c1ccc(/C=C/c2ccc(/C=C/c3cc(-c4ccc(Br)cc4)cc(-c4ccc(Br)cc4)[o+]3)cc2)cc1

MIC (Enterococcus faecium [4]): > 80 µM
MIC (Staphylococcus aureus [17]): > 80 µM
SMILES: Brc1ccc(-c2cc(/C=C/c3ccc(N4CCCCC4)cc3)[o+]c(-c3ccc(Br)cc3)c2)cc1

MIC (Enterococcus faecium [4]): 22.5 µM
MIC (Staphylococcus aureus [17]): 45.1 µM
SMILES: CN1/C(=C/C=C/c2cc(-c3ccc(Br)cc3)cc(-c3ccc(Br)cc3)[o+]2)C(C)(C)c2cc(Cl)ccc21

MIC (Enterococcus faecium [4]): > 80 µM
MIC (Staphylococcus aureus [17]): > 80 µM
SMILES: CN(CCO)c1ccc(/C=C/c2cc(-c3ccc(Br)cc3)cc(-c3ccc(Br)cc3)[o+]2)cc1

MIC (Enterococcus faecium [4]): 12.2 µM
MIC (Staphylococcus aureus [17]): 24.5 µM
SMILES: CN1/C(=C/c2ccc(/C=C/c3cc(-c4ccc(Br)cc4)cc(-c4ccc(Br)cc4)[o+]3)cc2)C(C)(C)c2ccccc21

MIC (Enterococcus faecium [4]): > 80 µM
MIC (Staphylococcus aureus [17]): > 80 µM
SMILES: CCN(CC)c1ccc(/C=C/c2cc(-c3ccc(Br)cc3)cc(-c3ccc(Br)cc3)[o+]2)cc1

MIC (Enterococcus faecium [4]): > 80 µM
MIC (Staphylococcus aureus [17]): > 80 µM
SMILES: CC(C)(C)OC(=O)N1CCN(c2ccc(/C=C/c3cc(-c4ccc(F)cc4)cc(-c4ccc(F)cc4)[o+]3)cc2)CC1
